Experiment [1] concerns the target T1, GLP-1R (Homo sapiens, UniProt P43220).
T1 construct: host or cells: CRE-bla CHO-K1
As to the kind of experiment: GLP-1 PAM EC20 assay: dosing compound in the presence of fixed GLP-1 (9-36), direct cAMP response. Format: cell-based. The conditions noted are these: compound dose response in presence of EC20 GLP-1 (9-36); for EC50: GLP-1R CRE-bla CHO-K1 cells; for EC20 GLP-1 (9-36) PAM max cAMP: total cAMP from standard curve. How it is done: GLP-1 PAM EC20 Assay: Dosing Compound in the Presence of Fixed GLP-1 (9-36)-Direct cAMP Response
GLP-1R CRE-bla CHO-K1 cells were seeded into 384-well white flat bottom plates at 10,000 cells/well/20 μL culture media (same culture media used for PAM shift assay) and incubated for 18 h at 37° C. in 5% CO2. Compound dose response curves (12-point) and a separate 30×EC20 GLP-1 (9-36) stock solution were generated in assay buffer (same assay buffer used for PAM shift assay) in presence of 1.5 mM IBMX and 12.5% DMSO. Cells were washed 1× with assay buffer prior to adding 3 μL of compound dose response curve and 0.5 μL EC20 GLP-1 (9-36) to 12 μL assay buffer and incubated for 30 min at 37° C. Direct detection of cAMP was carried out using DiscoveRx HitHunter cAMP kit according to manufacturer's instructions (substituting 5 μL Antibody portion with 2 μL) and luminescence was read using a SpectraMax M5 plate reader. Luminescence signal was converted to total cAMP using a cAMP standard curve and data was analyzed by non-linear regression to determine the EC50 values for cAMP dose response curves.

Experiment [2] deals with GLP-1R. Nature of the experiment: Size exclusion chromatography peak shift assay (stability induction on GLP-1R). Format: binding. The conditions noted are these: relative to apo protein and a positive control; effect on dimer stability. An excerpt: Generation of GLP-1R Protein Used in the Stability Induction Assay
A synthetic gene for a modified GLP-1R enhanced for expression in insect cells was created using overlap extension PCR to encode the amino acid sequence containing a signal peptide, N-terminal Flag (Sigma) epitope tag, mGLP-1R, GFP and a 10× histidine tag.
This gene product was cloned into the insect cell transfer vector, pFastBac 1 (Invitrogen) for transposition into the baculovirus DNA hosted in the DH10Bac strain E. coli. […] High titer viral stock of the recombinant GLP-1R baculovirus was recovered and used to infect a healthy population of SF9 insect cells for expression under the control of the ^ie1GP64 baculovirus promoter (EMD biosciences).
Recombinant protein was isolated from the membranes of the insect cells by extraction using 1% β-dodecylmaltopyranoside followed by purification using immobilized metal affinity chromatography resin and standard protocols After elution the protein was analyzed by analytical size exclusion chromatography to determine its retention time relative to an unliganded receptor.
Size Exclusion Chromatography Peak Shift Assay—Characterization of Stability Induction for Compounds
The protein's hydrodynamic radius was analyzed on an analytical size exclusion chromatography column (Sepax Zenix SEC-300 250 mm×4.6 mm column) equilibrated with 20 mM Hepes pH 7.5, 500 mM NaCl, 2% v/v glycerol, 0.05% w/v DDM and 0.01% w/v CHS and attached to a Dionex Ultimate HPLC which continuously pumped running buffer at a flow rate of 0.5 mL/min. The HPLC was equipped with an ultraviolet absorption and a fluorescence detector which enabled detection of total protein absorbance and GFP fluorescent emission respectively. The peak profiles of the GLP-1R in the presence of multiple compounds could be determined from impure mixtures using fluorescence detection.
Each tested compound was assayed for its ability to alter the hydrodynamic radius. This change can manifest as either a positive or negative shift in retention time in the peak shift assay. A positive shift represents a decrease in apparent molecular weight of the complex, while a negative shift represents an increase in size. Compounds that result in a negative shift in retention time (i.e. increased size) may do so by destabilizing the receptor or by causing non-specific aggregation. Compounds that result in a positive shift in retention time (i.e. decreased size) may do so either by stabilizing the receptor in a more compact conformation or by disrupting the oligomeric state (e.g. Dimer→monomer transition).
For this assay we reported the relative shift in retention time of each compound with respect to the apo protein (without ligand) and a positive control.

The record followed here is patent US8816121B2, “GLP-1 receptor stabilizers and modulators” (Receptos, Inc., priority 2010, dated 2014).

T1 sequence (P43220 24-463): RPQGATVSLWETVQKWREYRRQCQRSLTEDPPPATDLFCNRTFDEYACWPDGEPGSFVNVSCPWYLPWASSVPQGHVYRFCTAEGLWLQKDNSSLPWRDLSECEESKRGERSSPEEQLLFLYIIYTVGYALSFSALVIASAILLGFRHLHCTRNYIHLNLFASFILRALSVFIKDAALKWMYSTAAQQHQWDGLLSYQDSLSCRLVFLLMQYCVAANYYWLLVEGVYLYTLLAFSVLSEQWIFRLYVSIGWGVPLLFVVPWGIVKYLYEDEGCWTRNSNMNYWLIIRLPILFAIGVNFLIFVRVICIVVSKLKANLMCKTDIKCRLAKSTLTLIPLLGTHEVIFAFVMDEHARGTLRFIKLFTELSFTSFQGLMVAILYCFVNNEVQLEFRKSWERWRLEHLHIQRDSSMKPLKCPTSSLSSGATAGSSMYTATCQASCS
T1 sequence (P01275 100-127 partner limits assumed): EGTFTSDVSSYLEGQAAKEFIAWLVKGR

One may read the EC50 as the concentration that produces a half-maximal response. As to `CCCCCCCOc1ccc(C(=O)Oc2ccc(CC(NC(=O)c3ccc(OC)cc3)C(=O)O)cc2OC)cc1` (stereo not shown) [Compound 2, 3-(4-((4-(heptyloxy)benzoyl)oxy)-3-methoxyphenyl)-2-(4-methoxybenzamido)propanoic acid], on GLP-1R [1], the EC50 is > 20 µM and the “EC20 GLP-1 (9-36) PAM max cAMP” value came to 189 nM.

In the case of `CCCCCCCOc1ccc(C(=O)Oc2ccc(C[C@H](NC(=O)c3ccc(C(C)(C)C)cc3)C(=O)O)cc2)cc1` [Compound 57, (S)-2-(4-(tert-butyl)benzamido)-3-(4-((4-(heptyloxy)benzoyl)oxy)phenyl)propanoic acid], at GLP-1R [1], the EC50 was 3.67 µM and the “EC20 GLP-1 (9-36) PAM max cAMP” value is recorded as 237 nM.

Take `CCCCCCCOc1ccc(C(=O)Oc2ccc(C[C@H](NC(=O)c3ccc(OC)cc3)C(=O)O)cc2)cc1` [Compound 63]: on GLP-1R [1], the concentration giving a half-maximal response (EC50) is > 10 µM and the “EC20 GLP-1 (9-36) PAM max cAMP” value came out at 72 nM.

For `CCCCCCCOc1ccc(C(=O)Oc2ccc(CC(NC(=O)c3ccc(NC(=O)COCc4ccccc4)cc3)C(=O)O)cc2OC)cc1` (stereo not shown) [Compound 103, 2-(4-(2-(benzyloxy)acetamido)benzamido)-3-(4-((4-(heptyloxy)benzoyl)oxy)-3-methoxyphenyl)propanoic acid], at GLP-1R [1], the 50% effective concentration (EC50) is 5.49 µM and the “EC20 GLP-1 (9-36) PAM max cAMP” value stood at 204 nM.

For the compound `CCCCCCCOc1ccc(C(=O)Oc2ccc(CC(NC(=O)c3ccc(NC(=O)Cc4ccc(OC)cc4)cc3)C(=O)O)cc2OC)cc1` (stereo not shown) [Compound 120, 3-(4-((4-(heptyloxy)benzoyl)oxy)-3-methoxyphenyl)-2-(4-(2-(4-methoxyphenyl)acetamido)benzamido)propanoic acid], on GLP-1R [1], the EC50 turned out to be 4.05 µM and the “EC20 GLP-1 (9-36) PAM max cAMP” value turned out to be 174 nM.

In the case of `CCCCCCCOc1ccc(C(=O)Oc2ccc(C[C@H](NC(=O)c3ccc(NC(=O)Cc4ccc(OC)cc4)cc3)C(=O)O)cc2)cc1` [Compound 178, (S)-3-(4-((4-(heptyloxy)benzoyl)oxy)phenyl)-2-(4-(2-(4-methoxyphenyl)acetamido)benzamido)propanoic acid], at GLP-1R [1], the EC50 was 6.31 µM and the “EC20 GLP-1 (9-36) PAM max cAMP” value stood at 98 nM.

As to `CCCCCCCOc1ccc(C(=O)Oc2ccc(C[C@H](NC(=O)c3ccc(NC(=O)COCc4ccccc4)cc3)C(=O)O)cc2)cc1` [Compound 179, (S)-2-(4-(2-(benzyloxy)acetamido)benzamido)-3-(4-((4-(heptyloxy)benzoyl)oxy)phenyl)propanoic acid], on GLP-1R [1], the EC50 was determined as 4.84 µM and the “EC20 GLP-1 (9-36) PAM max cAMP” value was found to be 160 nM.

As to `CCCCCCCOc1ccc(C(=O)Oc2ccc([C@H](NC(=O)c3ccc(NC(=O)Cc4ccc(OC)cc4)cc3)C(=O)O)cc2)cc1` [Compound 263, (S)-2-(4-((4-(heptyloxy)benzoyl)oxy)phenyl)-2-(4-(2-(4-methoxyphenyl)acetamido)benzamido)acetic acid], at GLP-1R [1], the EC50 was found to be 2.78 µM and the “EC20 GLP-1 (9-36) PAM max cAMP” value is given as 216 nM.

As to `COc1cc(CC(NC(=O)c2ccc(NC(=O)C3CCCC3)cc2)C(=O)O)ccc1OC(=O)c1ccccc1` (stereo not shown) [Compound 266], the “PEAK SHIFT ASSAY (relative shift in retention time, normalized 0 to 5 positive, −5 to 0 negative)” value with GLP-1R [2] turned out to be 0.88.

On to `COc1cc(CC(NC(=O)c2ccc(NC(=O)C3CCCC3)cc2)C(=O)O)ccc1OC(=O)c1ccccc1OC(C)=O` (stereo not shown) [Compound 267], for which the “PEAK SHIFT ASSAY (relative shift in retention time, normalized 0 to 5 positive, −5 to 0 negative)” value with GLP-1R [2] was found to be 0.25.

Regarding `COc1ccc(C(=O)Oc2ccc(CC(NC(=O)c3ccc(NC(=O)C4CCCC4)cc3)C(=O)O)cc2OC)cc1` (stereo not shown) [Compound 268], in the experiment on GLP-1R [2], the “PEAK SHIFT ASSAY (relative shift in retention time, normalized 0 to 5 positive, −5 to 0 negative)” value is 0.46.

Consider `COc1cc(CC(NC(=O)c2ccc(NC(=O)C3CCCC3)cc2)C(=O)O)ccc1OC(=O)c1ccc(C#N)cc1` (stereo not shown) [Compound 269], for which the “PEAK SHIFT ASSAY (relative shift in retention time, normalized 0 to 5 positive, −5 to 0 negative)” value with GLP-1R [2] is on record as 0.34.

In the case of `COc1cc(CC(NC(=O)c2ccc(NC(=O)C3CCCC3)cc2)C(=O)O)ccc1OC(=O)c1ccccc1COC(=O)c1ccccc1` (stereo not shown) [Compound 270], the “PEAK SHIFT ASSAY (relative shift in retention time, normalized 0 to 5 positive, −5 to 0 negative)” value in the experiment on GLP-1R [2] turned out to be 0.

Take `CCCN(CCC)S(=O)(=O)c1ccc(C(=O)Oc2ccc(CC(NC(=O)c3ccc(NC(=O)C4CCCC4)cc3)C(=O)O)cc2OC)cc1` (stereo not shown) [Compound 271]: in the experiment with GLP-1R [2], the “PEAK SHIFT ASSAY (relative shift in retention time, normalized 0 to 5 positive, −5 to 0 negative)” value is 0.52.

As for `COc1cc(CC(NC(=O)c2ccc(NC(=O)C3CCCC3)cc2)C(=O)O)ccc1OC(=O)c1ccc(NC(=O)C2CCCC2)cc1` (stereo not shown) [Compound 272], the “PEAK SHIFT ASSAY (relative shift in retention time, normalized 0 to 5 positive, −5 to 0 negative)” value with GLP-1R [2] is reported as −1.15.

As to `CCCCCCCOc1ccc(C(=O)Oc2ccc(CC(NC(=O)c3ccc(NC(=O)C4CCCC4)cc3)C(=O)O)cc2OC)cc1` (stereo not shown) [Compound 273, 2-(4-(cyclopentanecarboxamido)benzamido)-3-(4-((4-(heptyloxy)benzoyl)oxy)-3-methoxyphenyl)propanoic acid], on GLP-1R [1], the 50% effective concentration (EC50) was > 10 µM and the “EC20 GLP-1 (9-36) PAM max cAMP” value is recorded as 27 nM. Further, the “PEAK SHIFT ASSAY (relative shift in retention time, normalized 0 to 5 positive, −5 to 0 negative)” value in the experiment with GLP-1R [2] worked out at 0.69.

Consider `COc1cc(CC(NC(=O)c2ccc(NC(=O)C3CCCC3)cc2)C(=O)O)ccc1OC(=O)c1ccc(NC(C)=O)cc1` (stereo not shown) [Compound 274, 3-(4-((4-acetamidobenzoyl)oxy)-3-methoxyphenyl)-2-(4-(cyclopentanecarboxamido)benzamido)propanoic acid], for which, in the experiment on GLP-1R [2], the “PEAK SHIFT ASSAY (relative shift in retention time, normalized 0 to 5 positive, −5 to 0 negative)” value is given as 0.83.

With `COc1cc(CC(NC(=O)c2ccc(NC(=O)C3CCCC3)cc2)C(=O)O)ccc1OC(=O)c1ccc(-c2ccccc2)cc1` (stereo not shown) [Compound 275], the “PEAK SHIFT ASSAY (relative shift in retention time, normalized 0 to 5 positive, −5 to 0 negative)” value in the experiment with GLP-1R [2] is given as 0.
